Measurements reported in patent US20130053381A1, “2,4-DIOXO-1,4-DIHYDRO-2H-QUINAZOLIN-3-YL-SULFONAMIDE DERIVATIVES” (NOVARTIS AG, priority 2010, published 2013).
Read-outs that look alike come from different tables or passages of the source.

Key:
[1] = test system: OF1 mice; assay: Maximal electroshock test (MES Test); format: in vivo; details: for responders at 50 mg/kg: p.o.
In short: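 Readout: fraction of five OF1 mice protected, meaning seizure duration 3 s or less, after a 50 Hz, 18 mA, 0.2 s temporal-electrode shock. Dosing was oral, usually 50 mg/kg, one hour beforehand; ED50 values were derived and post-shock blood taken for exposure.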

[2] = molecular target: AMPA receptor; assay: [3H]CNQX binding test (AMPA-receptor binding); set-up: species or system rat
Description: CNQX binding test (Honore et al. Biochem. Pharmacol. 1989, 38: 3207-3212). This test is performed as follows.
Brain membranes: The animals are sacrificed, the brain removed and homogenized in 10 volumes of ice-cold 10% sucrose with a glass/Teflon homogenizer at positions 5 for 30 sec. The membranes are centrifuged at 1000×g for 10 min, and the supernatant centrifuged at 20,000×g for 15 min. The resulting pellet is resuspended in 10 volumes of cold water with a tissue homogenizer (Brinkman Polytron) at position 5 for 15 sec and the suspension centrifuged at 8000×g for 10 min. The supernatant including the buffy layer is centrifuged at 40,000×g for 20 min, the pellet resuspended in 5 volumes of water and the suspension frozen (20-30 min in dry ice/MeOH) and thawed (water-bath at 37° C.) twice. The suspension is centrifuged at 40,000×g for 20 min, the pellet resuspended in 50 mM HEPES/KOH, pH 7.5, and centrifuged at 40,000×g for 10 min. The final pellet is resuspended with a glass/Teflon homogenizer in 5 volumes of HEPES/KOH buffer; 2 mL aliquots are frozen and stored in liquid nitrogen.
Pretreatment of membranes: Membranes are thawed at 35° C. and once washed with 50 mM HEPES/KOH by centrifugation at 39,000×g for 10 min. The final pellet is resuspended with a glass/Teflon homogenizer in the same buffer.
Radioligand binding assay: It is performed using 96-well microtiterplates in a volume of 0.3 mL of 50 mM HEPES/KOH, pH 7.2, 100 μg membrane protein, 5 nM [^3H]-CNQX (NEN) and the compound to be tested. Incubation is performed at 4° C. for 40 min and the reaction is terminated by centrifugation (Sigma 4K10) at 3700×g for 30 min. The pellet is washed once with cold buffer and then dissolved in 0.02 mL of the tissue solubilizer Soluene for 20 min. Two hundred μL of the scintillation fluid Microscint 20 (Packard) are added and the radioactivity is counted in a Packard Topcount scintillation counter at an efficiency of 40-45%. Nonspecific binding is defined by 10 μM CNQX. Assays are performed in triplicate.

[3] = Mus musculus, po, pre-treatment time −1 h, read-out: %-Protection
[4] = Table 2 parent compounds, rat, read-out: [3H]CNQX IC50 AMPA receptor binding, rat
[5] = Table 1A parent compounds, AMPA-receptor binding as described for Table 2, read-out: IC50

SMILES | responders at 50 mg/kg [1, 3] | IC50 [2, 4] | IC50 [2, 5] | also measured
Cn1nccc1-c1cc2c(=O)n(NS(C)(=O)=O)c(=O)[nH]c2cc1C(F)(F)F [Example 1.0, N-[6-(2-methyl-2H-pyrazol-3-yl)-2,4-dioxo-7-trifluoromethyl-1,4-dihydro-2H-quinazolin-3-yl]-methanesulfonamide] | 20% | 208 nM |  | 
CCc1cc2[nH]c(=O)n(NS(C)(=O)=O)c(=O)c2cc1-c1ccnn1C [Example 2.0, N-[7-ethyl-6-(2-methyl-2H-pyrazol-3-yl)-2,4-dioxo-1,4-dihydro-2H-quinazolin-3-yl]-methanesulfonamide] | 80% | 257 nM |  | 
CC(C)c1cc2[nH]c(=O)n(NS(C)(=O)=O)c(=O)c2cc1-c1ccnn1C [Example 3.0, N-[7-isopropyl-6-(2-methyl-2H-pyrazol-3-yl)-2,4-dioxo-1,4-dihydro-2H-quinazolin-3-yl]-methanesulfonamide] |  | 189 nM |  | responders at 15 mg/kg ([1]; Mus musculus, po, Dose: 15 mg/kg, p.o. (footnote c), pre-treatment time −1 h, read-out: %-Protection): 100%; responders at 50 mg/kg ([1]; Mus musculus, po, Table 5, pre-treatment time −0.25 h, read-out: %-Protection): 0%; responders at 50 mg/kg ([1]; Mus musculus, po, Table 5, pre-treatment time −0.5 h, read-out: %-Protection): 100%; responders at 50 mg/kg ([1]; Mus musculus, po, Table 5, pre-treatment time −1 h, read-out: %-Protection): 100%
CS(=O)(=O)Nn1c(=O)[nH]c2cc(C(F)(F)F)c(-n3ccnc3)cc2c1=O [Example 4.0, N-(6-imidazol-1-yl-2,4-dioxo-7-trifluoromethyl-1,4-dihydro-2H-quinazolin-3-yl)-methanesulfonamide] | 0% | 42 nM |  | ED50 ([1]; Mus musculus, ip, pre-treatment time −0.25 h (footnote g)): 10.7 mg/kg; %-seizure protection ([1]; single 50 mg/kg p.o. dose, 30 min after treatment, MES Test): 0%
CC(C)n1nccc1-c1cc2c(=O)n(NS(C)(=O)=O)c(=O)[nH]c2cc1C(F)(F)F [Example 5.0, N-[6-(2-isopropyl-2H-pyrazol-3-yl)-2,4-dioxo-7-trifluoromethyl-1,4-dihydro-2H-quinazolin-3-yl]-methanesulfonamide] | 80% | 87 nM |  | 
CC(C)n1nccc1-c1cc2c(=O)n(NS(C)(=O)=O)c(=O)[nH]c2cc1C(F)F [Example 6.0, N-[7-difluoromethyl-6-(2-isopropyl-2H-pyrazol-3-yl)-2,4-dioxo-1,4-dihydro-2H-quinazolin-3-yl]-methanesulfonamide] | 80% | 110 nM |  | responders at 25 mg/kg ([1]; Mus musculus, po, Dose: 25 mg/kg, p.o. (footnote b), pre-treatment time −1 h, read-out: %-Protection): 20%
CS(=O)(=O)Nn1c(=O)[nH]c2cc(C(F)(F)F)c(-n3cccc3)cc2c1=O [Example 8.0, N-(2,4-dioxo-6-pyrrol-1-yl-7-trifluoromethyl-1,4-dihydro-2H-quinazolin-3-yl)-methanesulfonamide] | 40% | 162 nM |  | 
CS(=O)(=O)Nn1c(=O)[nH]c2cc(C(F)(F)F)c(-n3cnnc3)cc2c1=O [Example 9.0, N-(2,4-dioxo-6-[1,2,4]triazol-4-yl-7-trifluoromethyl-1,4-dihydro-2H-quinazolin-3-yl)-methanesulfonamide] |  | 46 nM |  | responders at 50 mg/kg ([1]; Mus musculus, po, pre-treatment time −2 h (footnote a), read-out: %-Protection): 20%
CS(=O)(=O)Nn1c(=O)[nH]c2cc(C(F)(F)F)c([C@H]3CCCO3)cc2c1=O [Example 10.0, N—((R)-2,4-dioxo-6-tetrahydro-furan-2-yl-7-trifluoromethyl-1,4-dihydro-2H-quinazolin-3-yl)-methanesulfonamide] | 100% | 159 nM |  | responders at 50 mg/kg ([1]; Mus musculus, po, pre-treatment time −0.5 h (footnote d), read-out: %-Protection): 0%
CCC(OC)c1cc2c(=O)n(NS(C)(=O)=O)c(=O)[nH]c2cc1C(F)(F)F (centres unmarked) [Example 11.0, N-[2,4-Dioxo-6-(1-methoxy-propyl)-7-trifluoromethyl-1,4-dihydro-2H-quinazolin-3-yl]-methanesulfonamide] | 100% | 317 nM |  | 
CCC(O)c1cc2c(=O)n(NS(C)(=O)=O)c(=O)[nH]c2cc1C(F)(F)F (centres unmarked) [Example 12.0, N-[6-(1-hydroxy-propyl)-2,4-dioxo-7-trifluoromethyl-1,4-dihydro-2H-quinazolin-3-yl]-methanesulfonamide] | 40% | 162 nM |  | 
CCc1cc2[nH]c(=O)n(NS(C)(=O)=O)c(=O)c2cc1-c1ccnn1CC [Example 13.0, N-[7-ethyl-6-(2-ethyl-2H-pyrazol-3-yl)-2,4-dioxo-1,4-dihydro-2H-quinazolin-3-yl]-methanesulfonamide] | 60% | 341 nM |  | 
CC(F)c1cc2[nH]c(=O)n(NS(C)(=O)=O)c(=O)c2cc1-c1ccnn1C (centres unmarked) [Example 43.0] |  |  | 700 nM | 
CC(C)c1cc2[nH]c(=O)n(NS(C)(=O)=O)c(=O)c2cc1C1CCOC1 (centres unmarked) [Example 44.0] |  |  | 2200 nM | 
CC(C)c1cc2[nH]c(=O)n(NS(C)(=O)=O)c(=O)c2cc1-c1ccnn1[C@@H]1CCOC1 [Example 45.0] |  |  | 560 nM | 
CS(=O)(=O)Nn1c(=O)[nH]c2cc(C(F)(F)F)c(-c3ccnn3C3CCCC3)cc2c1=O [Example 46.0] |  |  | 1200 nM | 
CS(=O)(=O)Nn1c(=O)[nH]c2cc(C(F)(F)F)c([C@H]3CO[C@@H](CO)C3)cc2c1=O [Example 47.0] |  |  | 370 nM | 
C[C@@H]1COC[C@@H]1c1cc2c(=O)n(NS(C)(=O)=O)c(=O)[nH]c2cc1C(F)(F)F [Example 48.0] |  |  | 520 nM | 
CC(C)c1cc2[nH]c(=O)n(NS(C)(=O)=O)c(=O)c2cc1-c1ccnn1-c1ccccc1 [Example 49.0] |  |  | 3500 nM | 
CCOC(C)c1cc2c(=O)n(NS(C)(=O)=O)c(=O)[nH]c2cc1CC (centres unmarked) [Example 50.0] |  |  | 1850 nM | 
CC(OCc1ccccc1)c1cc2c(=O)n(NS(C)(=O)=O)c(=O)[nH]c2cc1C(F)(F)F (centres unmarked) [Example 51.0] |  |  | 780 nM | 
CC(OCC(F)(F)F)c1cc2c(=O)n(NS(C)(=O)=O)c(=O)[nH]c2cc1C(F)(F)F (centres unmarked) [Example 52.0] |  |  | 1120 nM | 
